According to article PMC6418270, “The pharmacological and functional characterization of the serotonergic system in Anopheles gambiae and Aedes aegypti: influences on flight and blood-feeding behavior” (Scientific Reports, 2019):
Counter-ions that a name gives are not always drawn.

How the values were obtained:
AGAP002232 [1] = biological target: T1, AGAP002232 (Anopheles gambiae, UniProt A0A1S4GEY1); assay: Fluo-4 calcium assay in CRE-luc2P HEK-293 cells expressing AGAP002232; type: cell-based; settings: for Response to biogenic amines: 10^−4 M, AGAP002232; for Ability to inhibit activity in a dose-response manner: antagonist test, receptor not given, taken as both 5-HT2 cell lines
T1 sequence (A0A1S4GEY1 entry or part of it): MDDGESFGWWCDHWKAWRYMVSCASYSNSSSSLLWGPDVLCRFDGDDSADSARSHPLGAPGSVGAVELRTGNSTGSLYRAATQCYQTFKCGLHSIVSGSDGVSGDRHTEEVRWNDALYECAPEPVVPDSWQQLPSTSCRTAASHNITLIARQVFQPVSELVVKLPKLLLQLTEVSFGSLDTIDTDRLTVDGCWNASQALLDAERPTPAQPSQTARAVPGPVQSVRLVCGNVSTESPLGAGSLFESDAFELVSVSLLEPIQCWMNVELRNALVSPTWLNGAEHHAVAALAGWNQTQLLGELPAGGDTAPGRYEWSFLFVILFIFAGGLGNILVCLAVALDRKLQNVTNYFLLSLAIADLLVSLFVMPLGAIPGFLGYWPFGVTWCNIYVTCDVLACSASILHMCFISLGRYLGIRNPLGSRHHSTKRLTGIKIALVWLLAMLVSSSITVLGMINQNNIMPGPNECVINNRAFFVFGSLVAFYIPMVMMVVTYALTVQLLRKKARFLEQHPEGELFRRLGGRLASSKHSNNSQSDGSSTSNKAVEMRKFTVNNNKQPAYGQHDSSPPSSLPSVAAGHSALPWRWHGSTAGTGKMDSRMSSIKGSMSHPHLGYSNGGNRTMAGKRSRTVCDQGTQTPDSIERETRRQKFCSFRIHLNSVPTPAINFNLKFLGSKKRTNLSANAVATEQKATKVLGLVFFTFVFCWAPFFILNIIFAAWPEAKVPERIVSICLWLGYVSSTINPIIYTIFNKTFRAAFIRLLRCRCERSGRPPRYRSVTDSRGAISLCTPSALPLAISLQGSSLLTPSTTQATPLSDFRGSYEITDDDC
Method: The GloResponse™ CRE-luc2P human embryonic kidney (HEK-293) reporter cells were incubated at 37 °C with an atmosphere of 5% CO2, and maintained in Dulbecco’s Modified Eagle Medium (DMEM) supplemented with 10% fetal bovine serum (FBS) and […] hygromycin B. Transfection of the HEK-293 cells with 1 μg of plasmid DNA was performed with Amaxa Nucleofector™ technology (Lonza, Basel, Switzerland) as per manufacturer’s instructions. A week post-transfection, selective pressure was applied with […] of G418 antibiotic to generate stable lines.
(§1) 1 × 10^6 cells per well were seeded into a 96-well black all-clear bottom plate and incubated overnight in 10% FBS/90% DMEM at 37 °C with an atmosphere of 5% CO2. The following day, 2X Fluo-4 Direct calcium dye (Molecular Devices LLC, San Jose, CA) was added to each well and incubated in the same conditions for 45 minutes before the assay was completed. At this time, serial dilutions of the test compounds were prepared in a 96-well clear flat bottom plate. Fluorescence levels were determined with a FlexStation3 microplate reader, with excitation and emission wavelengths set to 485 and 525 nm, respectively (Molecular Devices LLC). Basal fluorescence levels were measured for 17 seconds, at which time, 25 μl of the agonist compound was added. Fluorescence measurements continued to be recorded for a total of 120 seconds at 2-second intervals. When testing antagonists, cells were treated with the compound prior to determination of fluorescence levels.
(§2) Luminescence and calcium assay data were normalized and fitted with a non-linear least squares regression to generate dose-response curves, EC50 and IC50 values. Unpaired t-tests or Dunnett’s multiple comparisons test were performed accordingly to compare EC50 or IC50 values. Locomotion was measured based on the distance required for flight recovery. Data were compared with the Kruskal-Wallis and Dunnett’s multiple comparison tests after the Kolmogorov-Smirnov normality test was conducted. In the blood-feeding experiments, the percentage of blood-fed mosquitoes was calculated for each treatment group. For each biological replicate, the treatment groups were normalized with respect to the untreated group. Dunnett’s multiple comparison tests were utilized to determine statistical difference between normalized data. Size of bloodmeals were compared with an unpaired t-test or Mann-Whitney test after normality was evaluated with the Kolmogorov-Smirnov test. All analyses were performed utilizing GraphPad Prism version 7.00 for Mac OS X, GraphPad Software, La Jolla California USA, www.graphpad.com.

AGAP002229 [2] = biological target: T2, AGAP002229 (Anopheles gambiae, UniProt A7UR33); assay: Fluo-4 calcium assay in CRE-luc2P HEK-293 cells expressing AGAP002229; type: cell-based; settings: for Response to biogenic amines: 10^−4 M; for Response to biogenic amines / Receptor activation by agonist: AGAP002229; for Ability to inhibit activity in a dose-response manner: antagonist test, receptor not given, taken as both 5-HT2 cell lines
T2 sequence (A7UR33 entry or part of it): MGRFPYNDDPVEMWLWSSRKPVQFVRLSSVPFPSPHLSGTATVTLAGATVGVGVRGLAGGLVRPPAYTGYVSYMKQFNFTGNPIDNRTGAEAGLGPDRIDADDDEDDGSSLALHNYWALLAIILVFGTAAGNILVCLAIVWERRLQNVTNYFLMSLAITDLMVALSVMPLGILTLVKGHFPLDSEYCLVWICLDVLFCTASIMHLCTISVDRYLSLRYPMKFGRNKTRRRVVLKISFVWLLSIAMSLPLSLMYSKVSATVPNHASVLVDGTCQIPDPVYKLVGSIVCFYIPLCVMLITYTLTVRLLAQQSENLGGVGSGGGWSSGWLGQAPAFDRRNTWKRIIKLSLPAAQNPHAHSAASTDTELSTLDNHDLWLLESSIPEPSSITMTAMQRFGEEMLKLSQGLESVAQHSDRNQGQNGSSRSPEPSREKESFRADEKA
Method: A week post-transfection, selective pressure was applied with […] of G418 antibiotic to generate stable lines.
as §1, with “Fluorescence levels were determined with a FlexStation3 microplate reader, with excitation and emission wavelengths set to 485 and 525 nm, respectively (Molecular Devices LLC). Basal fluorescence levels were measured for 17 seconds, at which time, 25 μl of the agonist compound was added.” left out
as §2

An. gambiae = settings: cited from earlier work
5-HT7 receptors = test system: 5-HT7 receptors; set-up: method as in PMID 11282322; settings: in humans; cited from earlier work
Ae. aegypti [3] = assay: Mortality on 10% sucrose solution containing compound; type: in vivo; settings: after a three-day period
Method: The serotonergic system was manipulated to identify its role in blood-feeding behavior. To allow for the depletion of 5-HT, mosquitoes were fed a 10% sucrose solution containing varying concentrations (1, 5, 10, 25, and 60 mg/mL) of PCPA ethyl ester, a compound that […] tryptophan hydroxylase, a crucial enzyme in 5-HT synthesis. At the two highest concentrations (25 and 60 mg/mL), there was a 100% mortality rate after a three-day period. […] In comparison to the control group, which ingested an average volume of 1.87μL of blood, the average blood meal size for 1 and 5 mg/mL PCPA-treated groups was 1.84 ± 0.16 μL (p = 0.89) and 2.33 ± 0.25 μL (p = 0.12), respectively.
Sucrose solution was withheld from newly-emerged mosquitoes for two days. On the third day, the mosquitoes were presented with a cotton ball saturated with 400 μL of a 10% sucrose solution laced with compound or the respective control for five days. The cotton ball was exchanged every other day with a fresh one.

Ae. aegypti [4] = assay: Blood-feeding assay after ingestion of compound in 10% sucrose; type: in vivo, Aedes aegypti
Method: Sucrose solution was withheld from newly-emerged mosquitoes for two days. On the third day, the mosquitoes were presented with a cotton ball saturated with 400 μL of a 10% sucrose solution laced with compound or the respective control for five days. The cotton ball was exchanged every other day with a fresh one. Seven to ten-day old female mosquitoes were treated with compound or appropriate control through microinjection post cold-anesthetization or ingestion. Two mL of human O^+ blood (BioChemed Services, Winchester, VA) was utilized to cover the concave surface of an inverted baby food jar. Hog intestine sealed the opening to simulate the puncturing of a host’s skin. The feeding membrane was placed on the top of a mosquito cage, and hot water was poured into the jar to warm the blood. After a 45-minute feed, the mosquitoes were immediately preserved at −20 °C. The blood meal size was determined for each mosquito via hemoglobinometry as previously described. Luminescence and calcium assay data were normalized and fitted with a non-linear least squares regression to generate dose-response curves, EC50 and IC50 values. Unpaired t-tests or Dunnett’s multiple comparisons test were performed accordingly to compare EC50 or IC50 values. Locomotion was measured based on the distance required for flight recovery. Data were compared with the Kruskal-Wallis and Dunnett’s multiple comparison tests after the Kolmogorov-Smirnov normality test was conducted. In the blood-feeding experiments, the percentage of blood-fed mosquitoes was calculated for each treatment group. For each biological replicate, the treatment groups were normalized with respect to the untreated group. Dunnett’s multiple comparison tests were utilized to determine statistical difference between normalized data. Size of bloodmeals were compared with an unpaired t-test or Mann-Whitney test after normality was evaluated with the Kolmogorov-Smirnov test. All analyses were performed utilizing GraphPad Prism version 7.00 for Mac OS X, GraphPad Software, La Jolla California USA, www.graphpad.com.

Ae. aegypti [5] = assay: Blood-feeding assay (artificial membrane feeder) after microinjection; type: in vivo, Aedes aegypti; settings: 10 mM microinjected
Method: (§3) Stock solutions of the compounds were diluted to the appropriate concentrations in 1X phosphate buffer solution (PBS). To account for potential solvent effects, an ultrapure H2O control group was included in every independent experiment. Female mosquitoes were either cold- or CO2-anesthetized. A Nanoject II Auto-Nanoliter Injector (Drummond Scientific Company, Broomall, PA) was then utilized to microinject 69 nL of compound into the spiracle.
Seven to ten-day old female mosquitoes were treated with compound or appropriate control through microinjection post cold-anesthetization or ingestion. Two mL of human O^+ blood (BioChemed Services, Winchester, VA) was utilized to cover the concave surface of an inverted baby food jar. Hog intestine sealed the opening to simulate the puncturing of a host’s skin. The feeding membrane was placed on the top of a mosquito cage, and hot water was poured into the jar to warm the blood. After a 45-minute feed, the mosquitoes were immediately preserved at −20 °C. The blood meal size was determined for each mosquito via hemoglobinometry as previously described.
as §2

AGAP002232 [6] = biological target: T1, AGAP002232; assay: GloResponse CRE-luc2P cyclic AMP reporter (luminescence) assay, AGAP002232; type: cell-based; settings: 10^−4 M
Method: (§4) The reporter construct in the HEK-293 cells regulated the transcription of the luciferase gene in response to cAMP levels, while the Rluc-Neo^r construct in the pF9a expression plasmid served as a normalizing agent. Cells suspended in 1% FBS/99% DMEM without phenol red were seeded in white 96-well plates at a density of 6.6 × 10^5 per well, and immediately treated with varying concentrations of compounds. Following a 4-hour incubation at 37 °C with an atmosphere of 5% CO2, the cells were prepared for a Dual-Glo luciferase assay according to the manufacturer’s instructions (Promega Corporation, Madison, WI). The luminescence units were measured on the SpectraMax L 96 microplate luminometer (Molecular Devices, Sunnyvale, CA) and normalized to the cell number.

Ae. aegypti [7] = assay: Flight performance in flight cylinder after microinjection; type: in vivo, Aedes aegypti
Method: as §3
A flight cylinder was assembled as described previously. The polyacrylamide sheet was coated with Tangle-Trap Sticky Coating (The Scotts Company LLC, Marysville, OH) and allowed to sit overnight before insertion into the flight cylinder. Adult mosquitoes were anesthetized on a CO2 pad and microinjected with the compound or ultrapure H2O control. Post-injection, they were permitted to recover in a fly vial for 30 minutes before being ejected into the flight cylinder. After each trial, the distance between the top of the cylinder and the trapped mosquito was recorded. Mosquitoes captured in the fly vial at the bottom of the cylinder were considered to be incapable of flying and a distance of 91.5 cm was recorded.
as §2

AGAP002229 [8] = biological target: T2, AGAP002229; assay: GloResponse CRE-luc2P cyclic AMP reporter (luminescence) assay, AGAP002229; type: cell-based; settings: 10^−4 M
Method: as §4

For `NCCc1ccc(O)cc1` [tyramine, tyramine hydrochloride], the “Response to biogenic amines” value (AGAP002232 [1]) was “indiscernible from background levels” and the “Response to biogenic amines” value (AGAP002229 [2]) was “indiscernible from background levels”.

In the case of `CN(C)CCCC1(c2ccc(F)cc2)OCc2cc(C#N)ccc21` (stereo not shown) [citalopram], the “Flight after microinjection into the thorax” value (An. gambiae) is listed as “severe flight defects and a prolonged time for flight recovery”.

In the case of `NCCc1c[nH]c2ccc(C(N)=O)cc12` [5-carboxamidotryptamine], the “Affinity for 5-HT7 receptors” value (5-HT7 receptors) is given as “strong affinity”.

For `CN1CCN2c3ccccc3Cc3ccccc3C2C1` (stereo not shown) [mianserin, mianserin hydrochloride], the “Ability to inhibit activity in a dose-response manner” value (“Ability to inhibit activity” for short) (AGAP002232 [1]) was “only the former two exhibited the ability to inhibit activity” and the “Ability to inhibit activity” value (AGAP002229 [2]) was “only the former two exhibited the ability to inhibit activity”.

For `O=C(CCCN1CCC2(CC1)C(=O)NCN2c1ccccc1)c1ccc(F)cc1` [spiperone], the “Ability to inhibit activity” value (AGAP002232 [1]) was “only the former two exhibited the ability to inhibit activity” and the “Ability to inhibit activity” value (AGAP002229 [2]) was “only the former two exhibited the ability to inhibit activity”.

With `NCC(O)c1ccc(O)cc1` (racemic) [octopamine, (±)-octopamine hydrochloride] the “Response to biogenic amines” value (AGAP002232 [1]) was “indiscernible from background levels” and the “Response to biogenic amines” value (AGAP002229 [2]) was “indiscernible from background levels”.

For `NCCc1c[nH]cn1` [histamine], the “Response to biogenic amines” value (AGAP002232 [1]) was “indiscernible from background levels” and the “Response to biogenic amines” value (AGAP002229 [2]) was “indiscernible from background levels”.

With `COC(=O)[C@@H]1[C@H]2C[C@H]3c4[nH]c5ccccc5c4CCN3C[C@@H]2CC[C@@H]1O` [yohimbine, yohimbine hydrochloride] the “Ability to inhibit activity” value (AGAP002232 [1]) was “only the former two exhibited the ability to inhibit activity” and the “Ability to inhibit activity” value (AGAP002229 [2]) was “only the former two exhibited the ability to inhibit activity”.

In the case of `CCCN(CCC)C1CCc2cccc(O)c2C1` (stereo not shown) [8-OH-DPAT], the “Affinity for 5-HT7 receptors” value (5-HT7 receptors) is given as “strong affinity”.

For `COc1ccc2[nH]cc(CCN)c2c1` [5-MT, 5-methoxytryptamine], the EC50 (AGAP002229 [2]) was 1080 nM and the “Receptor activation by agonist” value (AGAP002229 [2]) was “able to activate”.

For `NCCc1c[nH]c2ccccc12` [tryptamine, tryptamine hydrochloride], the EC50 (AGAP002229 [2]) was 2760 nM and the “Receptor activation by agonist” value (AGAP002229 [2]) was “able to activate”.

In the case of `NCCc1ccc(O)c(O)c1` [dopamine, dopamine hydrochloride], the “Response to biogenic amines” value (AGAP002232 [1]) is reported as “indiscernible from background levels” and the “Response to biogenic amines” value (AGAP002229 [2]) is reported as “indiscernible from background levels”.

With `CCOC(=O)C(N)Cc1ccc(Cl)cc1.Cl` (racemic) [PCPA ethyl ester, 4-chloro-DL-chlorophenylalanine ethyl ester hydrochloride] the Mortality rate (Ae. aegypti [3]; 25 mg/mL in 10% sucrose) was 100%, the Mortality rate (Ae. aegypti [3]; 60 mg/mL in 10% sucrose) was 100% and the “Average blood meal size” value (Ae. aegypti [4]; 1 mg/mL in 10% sucrose) was 1.84 ± 0.16 µL. The “Feeding success or blood meal volume versus control” value (Ae. aegypti [4]; 1 mg/mL in 10% sucrose) was “did not demonstrate any significant difference”, the “Average blood meal size” value (Ae. aegypti [4]; 5 mg/mL in 10% sucrose) was 2.33 ± 0.25 µL and the “Feeding success or blood meal volume versus control” value (Ae. aegypti [4]; 5 mg/mL in 10% sucrose) was “did not demonstrate any significant difference”. For the same compound, the “Average blood meal size” value (Ae. aegypti [4]; 10 mg/mL in 10% sucrose) was 3.53 ± 0.16 µL and the “Blood feeding success rate” value (Ae. aegypti [4]; 10 mg/mL in 10% sucrose) was 73.2%.

In the case of `NCCc1c[nH]c2ccc(O)cc12` [5-HT, serotonin hydrochloride], the “Successfully blood-fed, normalized to the untreated group” value (Ae. aegypti [5]) is reported as “approximately 80%”, the EC50 (AGAP002232 [1]) is reported as 1900 nM and the EC50 (AGAP002229 [2]) is reported as 87.4 nM. The “Receptor response (cyclic AMP) under Gαs and Gαi/o conditions” value (AGAP002232 [6]) was “no measurable responses”, the “Effect on flight compared to H2O alone” value (Ae. aegypti [7]; 10 mM) was “did not affect flight” and the “Average distance in flight cylinder” value (Ae. aegypti [7]; 10 mM, Fig. 5c) was 25.1 cm. The Ability to fly (Ae. aegypti [7]; concentrations greater than 10 mM) was “completely inhibited the mosquitoes’ ability to fly” and the “Receptor response (cyclic AMP) under Gαs and Gαi/o conditions” value (AGAP002229 [8]) was “no measurable responses”.
